# According to patent publication US20200187499A1, “SUBSTITUTED BENZYL-4-AMINOPICOLINIC ESTERS AND PYRIMIDINO-4-CARBOXYLIC ESTERS, METHODS FOR THE PRODUCTION THEREOF, AND USE THEREOF AS HERBICIDES AND PLANT GROWTH REGULATORS” (Bayer CropScience Aktiengesellschaft, priority 2017, published 2020):
# Test system: SETVI
# Experiment: Pre-emergence herbicidal action
# Format: in vivo
# Conditions: Table 2, pre-emergence (PE), 320 g/ha, scored after 3 weeks
# Outline: (§1)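 Visual herbicidal activity in percent (100% = dead, 0% = as untreated control), scored 3 weeks after treatment. Seeds were sown in sandy loam and covered, then the soil surface was sprayed pre-emergence with wettable-powder or emulsion-concentrate formulations in 600 to 800 l/ha water containing 0.2% wetting agent.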
row,Compound,Herbicidal action against SETVI
1,Nc1cc(-c2ccc3ccsc3c2)nc(C(=O)OCc2ccccc2F)c1Cl [Example I-01],90%
2,Nc1cc(-c2ccc3ccoc3c2)nc(C(=O)OCc2cccc(F)c2)c1Cl [Example I-02],90%
3,COc1ccc(COC(=O)c2nc(-c3ccc4ccoc4c3)c(F)c(N)c2Cl)cc1 [Example I-03],40%
4,Nc1c(F)c(-c2ccc3ccoc3c2)nc(C(=O)OCc2ccc(F)cc2)c1Cl [Example I-04],70%
5,Nc1cc(-c2ccc3occc3c2)nc(C(=O)OCc2ccc(F)cc2)c1Cl [Example I-05],90%

# Test system: ECHCG
# Experiment: Pre-emergence herbicidal action
# Format: in vivo
# Conditions: Table 2, pre-emergence (PE), 320 g/ha, scored after 3 weeks
# Outline: as §1
row,Compound,Herbicidal action against ECHCG
1,Nc1cc(-c2ccc3ccsc3c2)nc(C(=O)OCc2ccccc2F)c1Cl [Example I-01],100%
2,Nc1cc(-c2ccc3ccoc3c2)nc(C(=O)OCc2cccc(F)c2)c1Cl [Example I-02],100%
3,COc1ccc(COC(=O)c2nc(-c3ccc4ccoc4c3)c(F)c(N)c2Cl)cc1 [Example I-03],90%
4,Nc1c(F)c(-c2ccc3ccoc3c2)nc(C(=O)OCc2ccc(F)cc2)c1Cl [Example I-04],90%
5,Nc1cc(-c2ccc3occc3c2)nc(C(=O)OCc2ccc(F)cc2)c1Cl [Example I-05],90%

# Test system: POLCO
# Experiment: Pre-emergence herbicidal action
# Format: in vivo
# Conditions: Table 2, pre-emergence (PE), 320 g/ha, scored after 3 weeks
# Outline: as §1
row,Compound,Herbicidal action against POLCO
1,Nc1cc(-c2ccc3ccsc3c2)nc(C(=O)OCc2ccccc2F)c1Cl [Example I-01],100%
2,Nc1cc(-c2ccc3ccoc3c2)nc(C(=O)OCc2cccc(F)c2)c1Cl [Example I-02],100%
3,COc1ccc(COC(=O)c2nc(-c3ccc4ccoc4c3)c(F)c(N)c2Cl)cc1 [Example I-03],50%
4,Nc1c(F)c(-c2ccc3ccoc3c2)nc(C(=O)OCc2ccc(F)cc2)c1Cl [Example I-04],50%
5,Nc1cc(-c2ccc3occc3c2)nc(C(=O)OCc2ccc(F)cc2)c1Cl [Example I-05],90%

# Test system: VIOTR
# Experiment: Pre-emergence herbicidal action
# Format: in vivo
# Conditions: Table 2, pre-emergence (PE), 320 g/ha, scored after 3 weeks
# Outline: as §1
row,Compound,Herbicidal action against VIOTR
1,Nc1cc(-c2ccc3ccsc3c2)nc(C(=O)OCc2ccccc2F)c1Cl [Example I-01],70%
2,Nc1cc(-c2ccc3ccoc3c2)nc(C(=O)OCc2cccc(F)c2)c1Cl [Example I-02],70%
3,COc1ccc(COC(=O)c2nc(-c3ccc4ccoc4c3)c(F)c(N)c2Cl)cc1 [Example I-03],90%
4,Nc1c(F)c(-c2ccc3ccoc3c2)nc(C(=O)OCc2ccc(F)cc2)c1Cl [Example I-04],40%
5,Nc1cc(-c2ccc3occc3c2)nc(C(=O)OCc2ccc(F)cc2)c1Cl [Example I-05],50%

# Test system: ABUTH
# Experiment: Pre-emergence herbicidal action
# Format: in vivo
# Conditions: Table 2, pre-emergence (PE), 320 g/ha, scored after 3 weeks
# Outline: as §1
row,Compound,Herbicidal action against ABUTH
1,Nc1cc(-c2ccc3ccsc3c2)nc(C(=O)OCc2ccccc2F)c1Cl [Example I-01],80%
2,Nc1cc(-c2ccc3ccoc3c2)nc(C(=O)OCc2cccc(F)c2)c1Cl [Example I-02],30%
3,COc1ccc(COC(=O)c2nc(-c3ccc4ccoc4c3)c(F)c(N)c2Cl)cc1 [Example I-03],80%
4,Nc1c(F)c(-c2ccc3ccoc3c2)nc(C(=O)OCc2ccc(F)cc2)c1Cl [Example I-04],90%
5,Nc1cc(-c2ccc3occc3c2)nc(C(=O)OCc2ccc(F)cc2)c1Cl [Example I-05],50%

# Test system: AMARE
# Experiment: Pre-emergence herbicidal action
# Format: in vivo
# Conditions: Table 2, pre-emergence (PE), 320 g/ha, scored after 3 weeks
# Outline: as §1
row,Compound,Herbicidal action against AMARE
1,Nc1cc(-c2ccc3ccsc3c2)nc(C(=O)OCc2ccccc2F)c1Cl [Example I-01],100%
2,Nc1cc(-c2ccc3ccoc3c2)nc(C(=O)OCc2cccc(F)c2)c1Cl [Example I-02],100%
3,COc1ccc(COC(=O)c2nc(-c3ccc4ccoc4c3)c(F)c(N)c2Cl)cc1 [Example I-03],100%
4,Nc1c(F)c(-c2ccc3ccoc3c2)nc(C(=O)OCc2ccc(F)cc2)c1Cl [Example I-04],100%
5,Nc1cc(-c2ccc3occc3c2)nc(C(=O)OCc2ccc(F)cc2)c1Cl [Example I-05],90%

# Test system: ALOMY
# Experiment: Pre-emergence herbicidal action
# Format: in vivo
# Conditions: Table 2, pre-emergence (PE), 320 g/ha, scored after 3 weeks
# Outline: as §1
row,Compound,Herbicidal action against ALOMY
1,Nc1cc(-c2ccc3ccsc3c2)nc(C(=O)OCc2ccccc2F)c1Cl [Example I-01],60%
2,Nc1cc(-c2ccc3ccoc3c2)nc(C(=O)OCc2cccc(F)c2)c1Cl [Example I-02],80%
3,COc1ccc(COC(=O)c2nc(-c3ccc4ccoc4c3)c(F)c(N)c2Cl)cc1 [Example I-03],20%
4,Nc1c(F)c(-c2ccc3ccoc3c2)nc(C(=O)OCc2ccc(F)cc2)c1Cl [Example I-04],40%
5,Nc1cc(-c2ccc3occc3c2)nc(C(=O)OCc2ccc(F)cc2)c1Cl [Example I-05],30%

# Test system: SETVI
# Experiment: Post-emergence herbicidal action
# Format: in vivo
# Conditions: Table 5, post-emergence (PO), 320 g/ha, assessed after about 3 weeks
# Outline: (§2)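 After sowing in sandy loam, plants grew 2 to 3 weeks in the greenhouse, then at the one-leaf stage received the formulated compound as a foliar aqueous spray (600 to 800 l/ha, 0.2% wetting agent). Effect is given as visual percent damage relative to untreated controls.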
row,Compound,Herbicidal action against SETVI
1,Nc1cc(-c2ccc3ccsc3c2)nc(C(=O)OCc2ccccc2F)c1Cl [Example I-01],80%
2,Nc1cc(-c2ccc3ccoc3c2)nc(C(=O)OCc2cccc(F)c2)c1Cl [Example I-02],100%
3,COc1ccc(COC(=O)c2nc(-c3ccc4ccoc4c3)c(F)c(N)c2Cl)cc1 [Example I-03],90%
4,Nc1c(F)c(-c2ccc3ccoc3c2)nc(C(=O)OCc2ccc(F)cc2)c1Cl [Example I-04],90%
5,Nc1cc(-c2ccc3occc3c2)nc(C(=O)OCc2ccc(F)cc2)c1Cl [Example I-05],100%

# Test system: ECHCG
# Experiment: Post-emergence herbicidal action
# Format: in vivo
# Conditions: Table 5, post-emergence (PO), 320 g/ha, assessed after about 3 weeks
# Outline: as §2
row,Compound,Herbicidal action against ECHCG
1,Nc1cc(-c2ccc3ccsc3c2)nc(C(=O)OCc2ccccc2F)c1Cl [Example I-01],90%
2,Nc1cc(-c2ccc3ccoc3c2)nc(C(=O)OCc2cccc(F)c2)c1Cl [Example I-02],90%
3,COc1ccc(COC(=O)c2nc(-c3ccc4ccoc4c3)c(F)c(N)c2Cl)cc1 [Example I-03],100%
4,Nc1c(F)c(-c2ccc3ccoc3c2)nc(C(=O)OCc2ccc(F)cc2)c1Cl [Example I-04],100%
5,Nc1cc(-c2ccc3occc3c2)nc(C(=O)OCc2ccc(F)cc2)c1Cl [Example I-05],100%

# Test system: POLCO
# Experiment: Post-emergence herbicidal action
# Format: in vivo
# Conditions: Table 5, post-emergence (PO), 320 g/ha, assessed after about 3 weeks
# Outline: as §2
row,Compound,Herbicidal action against POLCO
1,Nc1cc(-c2ccc3ccsc3c2)nc(C(=O)OCc2ccccc2F)c1Cl [Example I-01],100%
2,Nc1cc(-c2ccc3ccoc3c2)nc(C(=O)OCc2cccc(F)c2)c1Cl [Example I-02],100%
3,COc1ccc(COC(=O)c2nc(-c3ccc4ccoc4c3)c(F)c(N)c2Cl)cc1 [Example I-03],40%
4,Nc1c(F)c(-c2ccc3ccoc3c2)nc(C(=O)OCc2ccc(F)cc2)c1Cl [Example I-04],80%
5,Nc1cc(-c2ccc3occc3c2)nc(C(=O)OCc2ccc(F)cc2)c1Cl [Example I-05],30%

# Test system: VIOTR
# Experiment: Post-emergence herbicidal action
# Format: in vivo
# Conditions: Table 5, post-emergence (PO), 320 g/ha, assessed after about 3 weeks
# Outline: as §2
row,Compound,Herbicidal action against VIOTR
1,Nc1cc(-c2ccc3ccsc3c2)nc(C(=O)OCc2ccccc2F)c1Cl [Example I-01],50%
2,Nc1cc(-c2ccc3ccoc3c2)nc(C(=O)OCc2cccc(F)c2)c1Cl [Example I-02],70%
3,COc1ccc(COC(=O)c2nc(-c3ccc4ccoc4c3)c(F)c(N)c2Cl)cc1 [Example I-03],100%
4,Nc1c(F)c(-c2ccc3ccoc3c2)nc(C(=O)OCc2ccc(F)cc2)c1Cl [Example I-04],50%
5,Nc1cc(-c2ccc3occc3c2)nc(C(=O)OCc2ccc(F)cc2)c1Cl [Example I-05],90%

# Test system: PHBPU
# Experiment: Post-emergence herbicidal action
# Format: in vivo
# Conditions: Table 5, post-emergence (PO), 320 g/ha, assessed after about 3 weeks
# Outline: as §2
row,Compound,Herbicidal action against PHBPU
1,Nc1cc(-c2ccc3ccsc3c2)nc(C(=O)OCc2ccccc2F)c1Cl [Example I-01],90%
2,Nc1cc(-c2ccc3ccoc3c2)nc(C(=O)OCc2cccc(F)c2)c1Cl [Example I-02],70%
3,COc1ccc(COC(=O)c2nc(-c3ccc4ccoc4c3)c(F)c(N)c2Cl)cc1 [Example I-03],40%
4,Nc1c(F)c(-c2ccc3ccoc3c2)nc(C(=O)OCc2ccc(F)cc2)c1Cl [Example I-04],40%
5,Nc1cc(-c2ccc3occc3c2)nc(C(=O)OCc2ccc(F)cc2)c1Cl [Example I-05],80%

# Test system: ABUTH
# Experiment: Post-emergence herbicidal action
# Format: in vivo
# Conditions: Table 5, post-emergence (PO), 320 g/ha, assessed after about 3 weeks
# Outline: as §2
row,Compound,Herbicidal action against ABUTH
1,Nc1cc(-c2ccc3ccsc3c2)nc(C(=O)OCc2ccccc2F)c1Cl [Example I-01],100%
2,Nc1cc(-c2ccc3ccoc3c2)nc(C(=O)OCc2cccc(F)c2)c1Cl [Example I-02],90%
3,COc1ccc(COC(=O)c2nc(-c3ccc4ccoc4c3)c(F)c(N)c2Cl)cc1 [Example I-03],100%
4,Nc1c(F)c(-c2ccc3ccoc3c2)nc(C(=O)OCc2ccc(F)cc2)c1Cl [Example I-04],100%
5,Nc1cc(-c2ccc3occc3c2)nc(C(=O)OCc2ccc(F)cc2)c1Cl [Example I-05],100%

# Test system: AMARE
# Experiment: Post-emergence herbicidal action
# Format: in vivo
# Conditions: Table 5, post-emergence (PO), 320 g/ha, assessed after about 3 weeks
# Outline: as §2
row,Compound,Herbicidal action against AMARE
1,Nc1cc(-c2ccc3ccsc3c2)nc(C(=O)OCc2ccccc2F)c1Cl [Example I-01],100%
2,Nc1cc(-c2ccc3ccoc3c2)nc(C(=O)OCc2cccc(F)c2)c1Cl [Example I-02],100%
3,COc1ccc(COC(=O)c2nc(-c3ccc4ccoc4c3)c(F)c(N)c2Cl)cc1 [Example I-03],100%
4,Nc1c(F)c(-c2ccc3ccoc3c2)nc(C(=O)OCc2ccc(F)cc2)c1Cl [Example I-04],100%
5,Nc1cc(-c2ccc3occc3c2)nc(C(=O)OCc2ccc(F)cc2)c1Cl [Example I-05],100%

# Test system: STEME
# Experiment: Post-emergence herbicidal action
# Format: in vivo
# Conditions: Table 5, post-emergence (PO), 320 g/ha, assessed after about 3 weeks
# Outline: as §2
row,Compound,Herbicidal action against STEME
1,Nc1cc(-c2ccc3ccsc3c2)nc(C(=O)OCc2ccccc2F)c1Cl [Example I-01],100%
2,Nc1cc(-c2ccc3ccoc3c2)nc(C(=O)OCc2cccc(F)c2)c1Cl [Example I-02],100%
3,COc1ccc(COC(=O)c2nc(-c3ccc4ccoc4c3)c(F)c(N)c2Cl)cc1 [Example I-03],100%
4,Nc1c(F)c(-c2ccc3ccoc3c2)nc(C(=O)OCc2ccc(F)cc2)c1Cl [Example I-04],100%
5,Nc1cc(-c2ccc3occc3c2)nc(C(=O)OCc2ccc(F)cc2)c1Cl [Example I-05],100%
